# Test results reported in patent US20250163064A1, “QUINAZOLINE COMPOUNDS AND USES THEREOF AS INHIBITORS OF MUTANT KRAS PROTEINS” (AMGEN INC., priority 2022, published 2025).
# Like-named read-outs stand apart in the source and are kept apart here.
# Key:
# [1] = target: His-tagged KRAS G12D protein (Homo sapiens (Human), UniProt P01116, G12D); assay: KRAS G12D TR-FRET Assay; type: binding; settings: biotinylated KRPep-2d, 10 μM GDP
# Procedure, shortened: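 His-KRAS G12D (20 nM working solution) preincubated with compound 30 min at rt in HEPES pH 7.4 buffer with 10 μM GDP, then biotinylated KRPep-2d added for 1 h. Eu-anti-His/streptavidin-d2 TR-FRET 665/615 ratio; IC50 from 4-parameter logistic fit.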
# [2] = target: GDP-bound KRAS protein (aa 1-169), G12D and C118A; SOS-mediated nucleotide exchange (Homo sapiens (Human), UniProt P01116, C118A/G12D); assay: KRAS G12D Coupled Nucleotide Exchange Assay; type: biochemical; settings: 2 h compound pre-incubation, GTP, cRAF AlphaScreen
# GDP-bound KRAS protein (aa 1-169), G12D and C118A; SOS-mediated nucleotide exchange, sequence (P01116 other isoform, or with tags, fused parts or gaps G12D/C118A): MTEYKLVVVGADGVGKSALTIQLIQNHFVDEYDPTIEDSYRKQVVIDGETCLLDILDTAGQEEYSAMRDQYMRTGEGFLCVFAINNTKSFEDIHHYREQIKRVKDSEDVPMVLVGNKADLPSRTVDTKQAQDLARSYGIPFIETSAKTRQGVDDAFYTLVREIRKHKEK
# Procedure, shortened: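 GDP-loaded KRAS (aa 1-169, G12D/C118A, N-His) preincubated 2 h with titrated compound in pH 7.4 HEPES/MgCl2/Triton buffer. SOS (aa 564-1049) plus GTP then added for 30 min. AlphaScreen readout; IC50 from 4-parameter logistic fit.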
# [3] = test system: Phosphorylation of ERK1/2 in AsPC-1 cells; assay: Phospho-ERK1/2 MSD Assay; type: cell-based
# Procedure, shortened: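 AsPC-1 cells in 10% FBS RPMI 1640 were treated with a compound dose titration for 2 h at 37° C, then lysed in RIPA buffer with protease and phosphatase inhibitors. Phospho-ERK1/2 was measured by MSD whole-cell lysate immunoassay, and IC50 was derived by 4-parameter logistic fit.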
# [4] = Homo sapiens, ASPC1, 2 h, read-out: 2 h p-ERK (AsPC-1 cells), IC50 (μM), AsPC-1 cells, 2 h compound treatment
# His-tagged KRAS G12D protein, sequence (P01116-2 other isoform, or with tags, fused parts or gaps G12D): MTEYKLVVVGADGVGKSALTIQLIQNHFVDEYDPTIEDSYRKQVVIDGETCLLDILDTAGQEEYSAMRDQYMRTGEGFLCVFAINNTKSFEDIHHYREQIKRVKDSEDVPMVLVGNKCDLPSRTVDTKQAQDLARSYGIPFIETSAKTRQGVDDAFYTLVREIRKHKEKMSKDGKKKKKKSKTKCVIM
Compound,IC50 [1],IC50 [2],"IC50 [3, 4]","IC50 ([3]; read-out: 2 h p-ERK (AsPC-1 cells), IC50, AsPC-1 cells, 2 h compound treatment)"
"N#Cc1c(N)sc2c(F)ccc(-c3c(Cl)cc4c(N5CCCCOCC5)nc(OC[C@@]56CCCN5C[C@H](F)C6)nc4c3F)c12 [Example 51, 2-Amino-4-(6-chloro-8-fluoro-2-(((2R,7aS)-2-fluorotetrahydro-1H-pyrrolizin-7a(5H)-yl)methoxy)-4-(1,4-oxazocan-4-yl)quinazolin-7-yl)-7-fluorobenzo[b] thiophene-3-carbonitrile]",2 nM,2 nM,0.089 µM,
"N#Cc1c(N)sc2c(F)ccc(-c3c(Cl)cc4c(N5CCCC6(CC(=O)N6)C5)nc(OC[C@@]56CCCN5C[C@H](F)C6)nc4c3F)c12 (stereo partly drawn) [Example 13, 2-Amino-4-(6-chloro-8-fluoro-2-(((2R,7aS)-2-fluorotetrahydro-1H-pyrrolizin1 7a(5H)-yl)methoxy)-4-(2-oxo-1,6-diazaspiro[3.5]nonan-6-yl)quinazolin-7-yl)-7-fluorobenzo[b] thiophene-3-carbonitrile]",5 nM,5 nM,2.21 µM,
"N#Cc1c(N)sc2c(F)ccc(-c3c(Cl)cc4c(N5CCCOCCC5)nc(OC[C@@]56CCCN5C[C@H](F)C6)nc4c3F)c12 (single isomer, unassigned) [Example 18]",2 nM,2 nM,0.013 µM,
"CCc1cc2c(N3CCOCC(C)(O)C3)nc(OC[C@@]34CCCN3C[C@H](F)C4)nc2c(F)c1-c1ccc(F)c2sc(N)c(C#N)c12 (stereo partly drawn) [Example 62, 2-Amino-4-(6-ethyl-8-fluoro-2-(((2R,7aS)-2-fluorotetrahydro-1H-pyrrolizin-7a(H)-yl)methoxy)-4-(6-hydroxy-6-methyl-1,4-oxazepan-4-yl)quinazolin-7-yl)-7-fluorobenzo[b]thiophene-3-carbonitrile]",3 nM,1 nM,,0.025 µM
